Test results as given in US12616671B2, “Use of rigosertib to treat RNA virus infections” (Icahn School of Medicine at Mount Sinai, priority 2020, dated 2026).

Columns and labels:
SARS-CoV-2 = test: Inhibition of SARS-CoV-2 replication in Vero E6 cells (viral NP immunostaining, percent infection); conditions: for IC50: read-out: IC50 of inhibition of the replication of SARS-CoV-2, MOI 0.025, compound added 2 h before infection, 48 h incubation, NP immunostaining
Vero E6 cells = conditions: uninfected VeroE6 cells, MTT assay, same compound dilutions as viral replication assay

Row | Compound | IC50 (SARS-CoV-2) [nM] | effect on the viability of Vero E6 cells (Vero E6 cells) | fold more effective than Remdesivir (SARS-CoV-2 replication IC50) (SARS-CoV-2; ratio of IC50 values versus Remdesivir) | effect on viral replication (SARS-CoV-2; SARS-CoV-2, negative control, data not shown)
1 | CCC(CC)COC(=O)[C@H](C)N[P@](=O)(OC[C@H]1O[C@@](C#N)(c2ccc3c(N)ncnn23)[C@H](O)[C@@H]1O)Oc1ccccc1 [Remdesivir] | 826 |  |  | 
2 | CCN(CCO)CCCC(C)Nc1ccnc2cc(Cl)ccc12 (stereo not drawn) [Hydroxy-Chloroquine] | 733 |  |  | 
3 | COc1cc(OC)c(/C=C/S(=O)(=O)Cc2ccc(OC)c(NCC(=O)O)c2)c(OC)c1 [Rigosertib] | 16 | little or no effect | approximately 50 fold | 
4 | CN1CCN(c2ccc(Nc3ncc4cc(C#N)c(=O)n(C5CCCC5)c4n3)cc2)CC1 [ON123300] |  |  |  | no effect
